Source: article PMC5615911 (Toxicology Reports, 2016)
Values joined by “and” are separate entries in the source; they are usually repeats but may differ in a detail not shown here. Equal entries are not always repeated.

Assays:
[1] = biological target: hERG (Homo sapiens, UniProt Q12809); test: hERG electrophysiology
[2] = In vivo metabolism of S3643, single oral dose 100 mg/kg bw; design: species or system Sprague-Dawley rats
[3] = system: S. typhimurium strains TA98, TA100, TA1535, TA1537; test: Bacterial reverse mutation test; format: cell-based
[4] = Pharmacokinetics of S3643, single iv or oral dose; format: in vivo, Sprague-Dawley rats; settings: for AUC(0-t): AUClast
[5] = Toxicokinetics in the 90-day dietary study; format: in vivo, Sprague-Dawley rats; settings: for AUC0–24 h/dose / Cmax/dose: M+F combined
[6] = biological target: CYP2C9 (Homo sapiens, UniProt P11712); test: CYP inhibition, LC–MS/MS assay in human liver microsomes; settings: probe tolbutamide
CYP2C9, sequence (P11712 whole entry): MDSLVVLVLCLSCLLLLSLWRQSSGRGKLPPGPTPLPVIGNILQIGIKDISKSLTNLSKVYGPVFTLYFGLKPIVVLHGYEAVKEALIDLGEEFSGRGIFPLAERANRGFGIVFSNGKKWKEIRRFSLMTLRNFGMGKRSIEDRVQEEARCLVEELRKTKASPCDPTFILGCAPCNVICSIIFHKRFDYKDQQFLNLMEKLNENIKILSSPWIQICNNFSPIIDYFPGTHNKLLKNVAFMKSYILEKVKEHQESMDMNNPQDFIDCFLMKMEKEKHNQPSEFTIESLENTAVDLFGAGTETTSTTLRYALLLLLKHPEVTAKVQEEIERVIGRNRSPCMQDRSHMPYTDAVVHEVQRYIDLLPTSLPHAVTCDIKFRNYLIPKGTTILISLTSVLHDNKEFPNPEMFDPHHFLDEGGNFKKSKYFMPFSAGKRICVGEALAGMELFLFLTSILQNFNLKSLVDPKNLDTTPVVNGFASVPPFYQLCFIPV

[7] = In vitro metabolism, human liver microsomes; format: in vitro ADME; settings: 60 min, 10 μM S3643, relative to S3643 peak area at time 0
[8] = biological target: CYP3A4 (Homo sapiens, UniProt P08684); test: CYP inhibition, LC–MS/MS assay in human liver microsomes; settings: for inhibition at 10 µM: human, human liver microsomes
CYP3A4, sequence (P08684 whole entry): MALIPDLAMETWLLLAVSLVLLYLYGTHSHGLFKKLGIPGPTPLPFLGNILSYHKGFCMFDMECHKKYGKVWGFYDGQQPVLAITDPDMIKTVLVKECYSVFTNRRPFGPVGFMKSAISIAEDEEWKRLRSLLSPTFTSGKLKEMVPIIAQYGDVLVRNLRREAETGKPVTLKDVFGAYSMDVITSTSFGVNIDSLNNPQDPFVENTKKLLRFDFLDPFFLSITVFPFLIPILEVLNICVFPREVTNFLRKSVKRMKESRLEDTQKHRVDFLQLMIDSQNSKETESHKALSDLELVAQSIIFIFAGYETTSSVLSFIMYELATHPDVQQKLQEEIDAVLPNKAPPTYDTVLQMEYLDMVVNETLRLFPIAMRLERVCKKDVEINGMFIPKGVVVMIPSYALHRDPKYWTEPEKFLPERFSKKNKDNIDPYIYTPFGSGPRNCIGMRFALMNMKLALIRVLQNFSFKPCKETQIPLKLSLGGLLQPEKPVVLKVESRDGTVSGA

[9] = system: Chinese hamster ovary cells (CHO-WBL); test: In vitro micronucleus test; format: cell-based
[10] = 28-day dose-range finding toxicity study; format: in vivo, Sprague-Dawley rats; settings: 10, 30, 100 mg/kg bw/day (food ad-mix)
[11] = system: human umami receptor; settings: cited from earlier work
[12] = system: E. coli strain WP2 uvrA; test: Bacterial reverse mutation test; format: cell-based
[13] = both, Sprague-Dawley, rat, plasma, oral, 100 mg/kg bw
[14] = rat plasma at 1 h, males and females combined
[15] = absence and presence of metabolic activation
[16] = female, Sprague-Dawley, rat, plasma, iv, 1 mg/kg
[17] = female, Sprague-Dawley, rat, plasma, po
[18] = female, Sprague-Dawley, rat, plasma, po, 10 mg/kg
[19] = female, Sprague-Dawley, rat, plasma, po, 30 mg/kg
[20] = female, Sprague-Dawley, rat, plasma, po, 100 mg/kg
[21] = female, iv 1.0 mg/kg bw, 1 mg/kg
[22] = male, Sprague-Dawley, rat, plasma, iv, 1 mg/kg
[23] = male, Sprague-Dawley, rat, plasma, po
[24] = male, Sprague-Dawley, rat, plasma, po, 10 mg/kg
[25] = male, Sprague-Dawley, rat, plasma, po, 30 mg/kg
[26] = male, Sprague-Dawley, rat, plasma, po, 100 mg/kg

hERG, sequence (Q12809 whole entry): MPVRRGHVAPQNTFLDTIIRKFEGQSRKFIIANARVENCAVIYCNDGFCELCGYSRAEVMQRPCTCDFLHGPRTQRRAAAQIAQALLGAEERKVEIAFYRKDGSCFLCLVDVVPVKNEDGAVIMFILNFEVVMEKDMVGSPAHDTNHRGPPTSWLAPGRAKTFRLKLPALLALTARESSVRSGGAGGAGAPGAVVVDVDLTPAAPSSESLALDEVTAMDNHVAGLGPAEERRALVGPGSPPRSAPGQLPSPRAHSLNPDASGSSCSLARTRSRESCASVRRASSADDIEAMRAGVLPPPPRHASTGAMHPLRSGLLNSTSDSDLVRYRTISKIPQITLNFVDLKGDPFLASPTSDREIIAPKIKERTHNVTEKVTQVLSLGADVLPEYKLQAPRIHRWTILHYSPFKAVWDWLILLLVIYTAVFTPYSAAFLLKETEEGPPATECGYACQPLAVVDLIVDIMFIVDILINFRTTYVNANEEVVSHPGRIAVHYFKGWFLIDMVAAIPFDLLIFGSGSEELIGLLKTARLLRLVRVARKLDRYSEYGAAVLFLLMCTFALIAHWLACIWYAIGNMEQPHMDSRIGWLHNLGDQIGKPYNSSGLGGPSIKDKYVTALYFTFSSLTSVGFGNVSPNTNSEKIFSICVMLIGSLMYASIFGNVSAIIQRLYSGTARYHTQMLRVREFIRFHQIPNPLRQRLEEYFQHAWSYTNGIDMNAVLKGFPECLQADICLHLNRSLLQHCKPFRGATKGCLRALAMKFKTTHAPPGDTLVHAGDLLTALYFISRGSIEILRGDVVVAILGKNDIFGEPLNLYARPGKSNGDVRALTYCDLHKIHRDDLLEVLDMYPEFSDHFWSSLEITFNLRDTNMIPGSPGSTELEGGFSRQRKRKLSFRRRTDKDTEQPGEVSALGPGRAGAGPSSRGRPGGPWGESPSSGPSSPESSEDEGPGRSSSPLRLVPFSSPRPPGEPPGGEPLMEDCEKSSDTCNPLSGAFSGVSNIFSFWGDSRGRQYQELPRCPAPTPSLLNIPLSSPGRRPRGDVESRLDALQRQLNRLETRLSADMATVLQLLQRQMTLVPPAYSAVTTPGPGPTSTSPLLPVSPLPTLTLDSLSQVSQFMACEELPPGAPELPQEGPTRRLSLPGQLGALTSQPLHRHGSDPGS

With `COc1cccc(-c2n[nH]c(SCc3ccccn3)n2)c1OC` [S3643, 2-(((3-(2,3-dimethoxyphenyl)-1H-1,2,4-triazol-5-yl)thio)methyl)pyridine] the inhibition at 10 µM [1] was under 10%, the concentration at 0.25 h [2, 13] was 86000 ng/mL and the concentration at 0.5 h [2, 13] was 81400 ng/mL. The concentration at 1 h [2, 13] was 55900 ng/mL, the concentration at 2 h [2, 13] was 29200 ng/mL and the concentration at 4 h [2, 13] was 14100 ng/mL. The concentration at 8 h [2, 13] was 4830 ng/mL, the concentration at 24 h [2, 13] was 63 ng/mL and the “% Peak Area” value [2, 14] was 55.52%. For the same molecule, the “Peak Area (×10^6)” value [2, 14] was 69.9, the “Reverse mutation (in vitro), result” value ([3]; 63–1000 μg/plate, preincubation, +S9) was “Negative” and the “Reverse mutation (in vitro), result” value ([3]; 130–2000 μg/plate, plate incorporation, ±S9) was “Negative”. For the same molecule, the “Reverse mutation (in vitro), result” value ([3]; 130–2000 μg/plate, preincubation, −S9) was “Negative”, the “Mutagenicity, conclusion” value [3, 15] was “not mutagenic” and the “Fold increase in AUClast for 10-fold increase in oral dose” value ([4]; female) was 16.8 fold. For the same molecule, the Tmax [4, 16] was 1.8 min, the Vd [4, 16] was 0.325 L/kg and the clearance [4, 16] was 8.03 mL/min/kg. It also gave a half-life [4, 16] of 9.6 min, a bioavailability [4, 17] of 67.4 to 116% and a half-life [4, 17] of 53.4 to 99.6 min. For the same molecule, the Tmax [4, 18] was 15 min, the bioavailability [4, 18] was 67.4% and the half-life [4, 18] was 53.4 min. For the same molecule, the AUC(0-t) ([4]; female, Sprague-Dawley, rat, plasma, po, 10 mg/kg, oral 10 mg/kg bw) was 14200 ng·h/mL, the Cmax ([4]; female, Sprague-Dawley, rat, plasma, po, 10 mg/kg, Cmax, oral 10 mg/kg bw) was 14900 ng/mL and the Tmax [4, 19] was 15 min. It also gave a bioavailability [4, 19] of 116%, a half-life [4, 19] of 68.4 min and an AUC(0-t) ([4]; female, Sprague-Dawley, rat, plasma, po, 30 mg/kg, oral 30 mg/kg bw) of 73500 ng·h/mL. It also gave a Cmax ([4]; female, Sprague-Dawley, rat, plasma, po, 30 mg/kg, Cmax, oral 30 mg/kg bw) of 45400 ng/mL, a Tmax [4, 20] of 22.8 min and a bioavailability [4, 20] of 113%. For the same molecule, the half-life [4, 20] was 99.6 min, the AUC(0-t) ([4]; female, Sprague-Dawley, rat, plasma, po, 100 mg/kg, oral 100 mg/kg bw) was 239000 ng·h/mL and the Cmax ([4]; female, Sprague-Dawley, rat, plasma, po, 100 mg/kg, Cmax, oral 100 mg/kg bw) was 98900 ng/mL and 310 µM. For the same molecule, the “CL as % of hepatic blood flow” value ([4]; female, iv) was 14.5%, the “Vss as % of total body water volume” value ([4]; female, iv) was 48.6% and the AUC0-last/dose ([4]; female, iv 1.0 mg/kg bw) was 2110 ng·h/mL/mg/kg. The AUC0-last [4, 21] was 2110 ± 353 ng·h/mL, the Cmax [4, 21] was 9840 ± 1880 ng/mL and the AUC0-last/dose ([4]; female, oral gavage 10 mg/kg bw) was 1423 ng·h/mL/mg/kg. The AUC0-last/dose ([4]; female, oral gavage 30 mg/kg bw) was 2450 ng·h/mL/mg/kg, the AUC0-last/dose ([4]; female, oral gavage 100 mg/kg bw) was 2393 ng·h/mL/mg/kg and the “Female/male ratio of mean AUClast” value ([4]; iv 1 mg/kg) was 0.76. The “Female/male ratio of mean Cmax” value ([4]; iv 1 mg/kg) was 0.91, the “Fold increase in AUClast for 10-fold increase in oral dose” value ([4]; male) was 6.88 fold and the Tmax [4, 22] was 1.8 min. For the same molecule, the Vd [4, 22] was 0.337 L/kg, the clearance [4, 22] was 5.97 mL/min/kg and the half-life [4, 22] was 11.4 min. It also gave a bioavailability [4, 23] of 65.7 to 96%, a half-life [4, 23] of 48 to 99.6 min and a Tmax [4, 24] of 15 min. For the same molecule, the bioavailability [4, 24] was 95.5%, the half-life [4, 24] was 48 min and the AUC(0-t) ([4]; male, Sprague-Dawley, rat, plasma, po, 10 mg/kg, oral 10 mg/kg bw) was 26600 ng·h/mL. It also gave a Cmax ([4]; male, Sprague-Dawley, rat, plasma, po, 10 mg/kg, Cmax, oral 10 mg/kg bw) of 32500 ng/mL, a Tmax [4, 25] of 26.4 min and a bioavailability [4, 25] of 96%. For the same molecule, the half-life [4, 25] was 58.2 min, the AUC(0-t) ([4]; male, Sprague-Dawley, rat, plasma, po, 30 mg/kg, oral 30 mg/kg bw) was 80300 ng·h/mL and the Cmax ([4]; male, Sprague-Dawley, rat, plasma, po, 30 mg/kg, Cmax, oral 30 mg/kg bw) was 50900 ng/mL. It also gave a Tmax [4, 26] of 18.6 min, a bioavailability [4, 26] of 65.7% and a half-life [4, 26] of 99.6 min. For the same molecule, the AUC(0-t) ([4]; male, Sprague-Dawley, rat, plasma, po, 100 mg/kg, oral 100 mg/kg bw) was 183000 ng·h/mL, the Cmax ([4]; male, Sprague-Dawley, rat, plasma, po, 100 mg/kg, Cmax, oral 100 mg/kg bw) was 78300 ng/mL and 238 µM and the “CL as % of hepatic blood flow” value ([4]; male, iv) was 10.8%. The “Vss as % of total body water volume” value ([4]; male, iv) was 50.4%, the AUC0-last/dose ([4]; male, iv 1.0 mg/kg bw) was 2790 ng·h/mL/mg/kg and the AUC0-last ([4]; male, iv 1.0 mg/kg bw, 1 mg/kg) was 2790 ± 187 ng·h/mL. For the same molecule, the Cmax ([4]; male, iv 1.0 mg/kg bw, 1 mg/kg) was 10870 ± 1870 ng/mL, the AUC0-last/dose ([4]; male, oral gavage 10 mg/kg bw) was 2665 ng·h/mL/mg/kg and the Cmax ([4]; male, oral gavage 10 mg/kg bw, 10 mg/kg) was 32510 ± 7710 ng/mL. For the same molecule, the AUC0-last/dose ([4]; male, oral gavage 30 mg/kg bw) was 2678 ng·h/mL/mg/kg, the AUC0-last/dose ([4]; male, oral gavage 100 mg/kg bw) was 1833 ng·h/mL/mg/kg and the “AUC0–24 h/dose” value ([5]; Day 7, nominal 10 mg/kg bw) was 574 ng·h/mL/mg/kg. For the same molecule, the Cmax/dose ([5]; Day 7, nominal 10 mg/kg bw) was 31.9 ng/mL/mg/kg, the “AUC0–24 h/dose” value ([5]; Day 7, nominal 30 mg/kg bw) was 1140 ng·h/mL/mg/kg and the Cmax/dose ([5]; Day 7, nominal 30 mg/kg bw) was 80.6 ng/mL/mg/kg. The “AUC0–24 h/dose” value ([5]; Day 7, nominal 100 mg/kg bw) was 1280 ng·h/mL/mg/kg, the Cmax/dose ([5]; Day 7, nominal 100 mg/kg bw) was 75.7 ng/mL/mg/kg and the “AUC0–24 h/dose” value ([5]; Day 90, nominal 10 mg/kg bw) was 1070 ng·h/mL/mg/kg. For the same molecule, the Cmax/dose ([5]; Day 90, nominal 10 mg/kg bw) was 78.3 ng/mL/mg/kg, the “AUC0–24 h/dose” value ([5]; Day 90, nominal 30 mg/kg bw) was 1560 ng·h/mL/mg/kg and the Cmax/dose ([5]; Day 90, nominal 30 mg/kg bw) was 98.0 ng/mL/mg/kg. For the same molecule, the “AUC0–24 h/dose” value ([5]; Day 90, nominal 100 mg/kg bw) was 1730 ng·h/mL/mg/kg, the Cmax/dose ([5]; Day 90, nominal 100 mg/kg bw) was 97.5 ng/mL/mg/kg and the “ACUM Ratio” value ([5]; Day 90/Day 7, nominal 10 mg/kg bw) was 1.86. For the same molecule, the “ACUM Ratio” value ([5]; Day 90/Day 7, nominal 30 mg/kg bw) was 1.37, the “ACUM Ratio” value ([5]; Day 90/Day 7, nominal 100 mg/kg bw) was 1.35 and the AUC(0-t) ([5]; both, Sprague-Dawley (Crl:CD(SD)), rat, plasma, po, 100 mg/kg bw/day, Combined mean AUC0-24hr, Day 90, 100 mg/kg bw/day) was 184000 ng·h/mL. For the same molecule, the inhibition at 10 µM [6] was 8%, the “% MS Peak Area, Human” value [7] was 54.9% and the IC50 [8] was over 10 µM. The inhibition at 10 µM [8] was under 50%, the inhibition at 10 µM ([8]; probe midazolam) was 30% and the “Micronucleus formation (in vitro), result” value (“Micronucleus formation” below) ([9]; 16–63 μg/mL, 19 h exposure, −S9) was “Negative”. The “Micronucleus formation” value ([9]; 50–200 μg/mL, 3 h exposure, +S9) was “Negative”, the “Micronucleus formation” value ([9]; 100–300 μg/mL, 3 h exposure, −S9) was “Negative” and the “% cells in cytostasis” value ([9]; 3 h, +S9, 50 μg/mL) was −1%. The “% cells in cytostasis” value ([9]; 3 h, +S9, 100 μg/mL) was −2%, the “% cells in cytostasis” value ([9]; 3 h, −S9, 100 μg/mL) was 1% and the “% cells in cytostasis” value ([9]; 3 h, −S9, 200 μg/mL) was 0%. The “% cells in cytostasis” value ([9]; 3 h, −S9, 300 μg/mL) was 25%, the “% cells in cytostasis” value ([9]; 3 h, −S9, 450 μg/mL) was 93% and the “% cells in cytostasis” value ([9]; 19 h, −S9, 16 μg/mL) was 10%. The “% cells in cytostasis” value ([9]; 19 h, −S9, 63 μg/mL) was 50%, the “% cells in cytostasis” value ([9]; 19 h, −S9, 130 μg/mL) was 93% and the “Induction of micronuclei, conclusion” value ([9]; all conditions) was “did not induce micronuclei”. For the same molecule, the Findings [10] was “No test-article related findings”, the “Concentration lower than MSG for equivalent umami flavour effect” value [11] was 1000 fold and the “Reverse mutation (in vitro), result” value ([12]; 250–5000 μg/plate, plate incorporation and pre-incubation, ±S9) was “Negative”. The “Mutagenicity, conclusion” value [12, 15] was “not mutagenic”.
